± gives the expanded uncertainty stated by the source.

The results in this text go back to the NIST ThermoML archive (doi:10.1021/acs.jced.8b00785).

For data set [1] the following is noted: Crystal; DSC.
Data set [2] can be described thus: Molar enthalpy of transition or fusion. The settings on record: Crystal; DSC.

As for `NNC(=O)c1ccncc1` [isonicotinic acid hydrazide], in data set [1], the Triple point temperature is reported as 446.04 ± 0.87 K. Further, the “Molar enthalpy of transition or fusion” value in data set [2] was found to be 6.72 ± 0.359 kcal/mol.
